≈ marks a conversion by molar mass, not a printed value.
Experiments:
[1] = system: Mycobacterium tuberculosis; assay: Antimycobacterial activity against Mycobacterium tuberculosis H37Rv assessed as inhibition of bacterial growth incubated for 5 days by alamar blue assay; assay type: functional; conditions: 120 h, time 5 day
[2] = system: Mycobacterium tuberculosis; assay: Antitubercular activity against Mycobacterium tuberculosis H37Rv assessed as inhibition of bacterial growth by alamar blue assay; assay type: functional
[3] = system: Mycobacterium tuberculosis; assay: Antimycobacterial activity against Mycobacterium tuberculosis H37Rv infected in human THP-1 cells assessed as inhibition of bacterial growth; assay type: functional, organism-based
[4] = system: Mycobacterium tuberculosis; assay: Potentiation of ethionamide induced antibacterial activity against Mycobacterium tuberculosis H37Rv expressing GFP incubated for 5 days by fluorescence based analysis; assay type: functional, organism-based; conditions: 120 h
[5] = system: Mycobacterium tuberculosis; assay: Antimycobacterial activity against Mycobacterium tuberculosis H37Rv incubated for 4 weeks; assay type: functional; conditions: 672 h
[6] = system: Mycobacterium tuberculosis; assay: Antimycobacterial activity against Mycobacterium tuberculosis H37Rv incubated for 3 weeks; assay type: functional; conditions: 504 h
[7] = system: Mycobacterium tuberculosis; assay: Antimycobacterial activity against Mycobacterium tuberculosis H37Rv incubated for 5 weeks; assay type: functional; conditions: 840 h
[8] = system: Mycobacterium tuberculosis; assay: Antimycobacterial activity against Mycobacterium tuberculosis H37Rv incubated for 2 weeks; assay type: functional; conditions: 336 h

Question: COc1ccc(Nc2nn3c(O)cc(C)nc3c2C(=O)Nc2ccc(F)c(Cl)c2)cc1 was tested. Which MIC [1] did it give?
Answer: 25 µg/mL (≈ 56.6 µM)

Question: With O=C(Cc1cccc(Br)c1)NNC(=O)c1ccncc1 as the compound, how does the MIC [2] read?
Answer: 25 µg/mL (≈ 74.8 µM)

Question: For O=C(CCCC(F)(F)F)N1CCC(c2cncc(Cl)c2)CC1, which IC50 [3] is on record?
Answer: 10 nM

Question: What about the EC50 [4] of the same compound?
Answer: < 150 nM

Question: Nc1ccc(O)c(C(=O)NNC(=O)c2ccncc2)c1 was tested. Which MIC [2] did it give?
Answer: 50 µg/mL (≈ 184 µM)

Question: With O=C(NNC(=O)C1CCNC(Br)C1)c1ccncc1 (stereo not drawn) as the compound, how does the MIC [2] read?
Answer: 25 µg/mL (≈ 76.4 µM)

Question: How did the IC50 [3] turn out when O=C(CCC(F)(F)F)N1CCC(c2cncc(Cl)c2)C1 (stereo not drawn) was run?
Answer: 10 nM

Question: And the EC50 [4]?
Answer: < 150 nM

Question: Which MIC [1] does the source give for Cc1cc(O)n2nc(N3CCCC3)c(C(=O)Nc3ccc(Cl)c(Cl)c3)c2n1 here?
Answer: 25 µg/mL (≈ 61.5 µM)

Question: How did the IC50 [3] turn out when O=C(CCC(F)(F)F)N1CCC(F)(c2ccnc(C(F)(F)F)c2)CC1 was run?
Answer: 10 nM

Question: And the EC50 [4]?
Answer: < 150 nM

Question: For Cc1ccc(Nc2nn3c(O)cc(C)nc3c2C(=O)Nc2ccccc2)cc1, which MIC [1] is on record?
Answer: 100 µg/mL (≈ 268 µM)

Question: With Cc1cc(O)n2nc(Nc3ccc(Cl)c(Cl)c3)c(C(=O)Nc3cccc(C)c3C)c2n1 as the compound, how does the MIC [1] read?
Answer: 50 µg/mL (≈ 110 µM)

Question: What does the source list for O=C(CCC(F)(F)F)N1CCC(F)(c2ccc(F)nc2)CC1?
Answer: IC50 [3]: 10 nM; EC50 [4]: < 150 nM

Question: How did the IC50 [3] turn out when O=C(CCC(F)(F)F)N1CCC(c2ccncc2F)CC1 was run?
Answer: 10 nM

Question: What about the EC50 [4] of the same compound?
Answer: < 150 nM

Question: O=C(/C=C/c1ccco1)NNC(=O)c1ccncc1 was tested. Which MIC [2] did it give?
Answer: 12.5 µg/mL (≈ 48.6 µM)

Question: With COc1ccc(NC(=O)c2c(Nc3ccccc3)nn3c(O)cc(C)nc23)cc1 as the compound, how does the MIC [1] read?
Answer: 50 µg/mL (≈ 128 µM)

Question: How did the MIC [1] turn out when Cc1ccc(Nc2nn3c(O)cc(C)nc3c2C(=O)Nc2ccc(F)c(Cl)c2)cc1 was run?
Answer: 12.5 µg/mL (≈ 29.4 µM)

Question: Which MIC [2] does the source give for O=C(Cc1ccccc1Br)NNC(=O)c1ccncc1 here?
Answer: 25 µg/mL (≈ 74.8 µM)

Question: With CC(C)(C)n1cc(C(=O)O)c(=O)c2cc(F)c(-c3cccc(Cl)c3)cc21 as the compound, how does the MIC [5] read?
Answer: 2 µg/mL (≈ 5.35 µM)

Question: And the MIC [6]?
Answer: 2 µg/mL (≈ 5.35 µM)

Question: And the MIC [7]?
Answer: 4 µg/mL (≈ 10.7 µM)

Question: And the MIC [8]?
Answer: 2 µg/mL (≈ 5.35 µM)

Question: With CC(C)c1ccc(-c2cc3c(cc2F)c(=O)c(C(=O)O)cn3C(C)(C)C)cc1 as the compound, how does the MIC [5] read?
Answer: 4 µg/mL (≈ 10.5 µM)

Question: What about the MIC [6] of the same compound?
Answer: 4 µg/mL (≈ 10.5 µM)

Question: What about the MIC [7] of the same compound?
Answer: 4 µg/mL (≈ 10.5 µM)

Question: What about the MIC [8] of the same compound?
Answer: 2 µg/mL (≈ 5.24 µM)

Question: How did the MIC [1] turn out when Cc1ccc(Nc2nn3c(O)cc(C)nc3c2C(=O)Nc2ccc(Cl)cc2)c(C)c1 was run?
Answer: 50 µg/mL (≈ 119 µM)

Question: What does the source list for CC(C)(C)n1cc(C(=O)O)c(=O)c2cc(F)c(-c3ccccc3Cl)cc21?
Answer: MIC [5]: 8 µg/mL (≈ 21.4 µM); MIC [6]: 8 µg/mL (≈ 21.4 µM); MIC [7]: 8 µg/mL (≈ 21.4 µM); MIC [8]: 8 µg/mL (≈ 21.4 µM)

Question: Which MIC [5] does the source give for CC(C)(C)n1cc(C(=O)O)c(=O)c2cc(F)c(-c3ccc(-c4ccccc4)cc3)cc21 here?
Answer: 4 µg/mL (≈ 9.63 µM)

Question: What about the MIC [6] of the same compound?
Answer: 4 µg/mL (≈ 9.63 µM)

Question: What about the MIC [7] of the same compound?
Answer: 4 µg/mL (≈ 9.63 µM)

Question: And the MIC [8]?
Answer: 4 µg/mL (≈ 9.63 µM)

Question: For O=C(CCC(F)(F)F)N1CCC(c2cccc(Cl)n2)CC1, which IC50 [3] is on record?
Answer: 10 nM

Question: And the EC50 [4]?
Answer: < 150 nM

Question: How did the IC50 [3] turn out when O=C(CCC(F)(F)F)N1CC(c2ccc(F)cc2F)C1 was run?
Answer: 10 nM

Question: And the EC50 [4]?
Answer: < 10 nM

Question: How did the MIC [1] turn out when Cc1cc(O)n2nc(Nc3ccc(Cl)cc3)c(C(=O)Nc3ccccc3)c2n1 was run?
Answer: 50 µg/mL (≈ 127 µM)

Question: How did the MIC [1] turn out when COc1ccc(Nc2nn3c(O)cc(C)nc3c2C(=O)Nc2ccc(C)cc2C)cc1 was run?
Answer: 50 µg/mL (≈ 120 µM)

Question: With COc1ccc(NC(=O)c2c(NN3CCOCC3)nn3c(O)cc(C)nc23)cc1 as the compound, how does the MIC [1] read?
Answer: 25 µg/mL (≈ 62.7 µM)

Question: For Cc1ccccc1-c1cc2c(cc1F)c(=O)c(C(=O)O)cn2C(C)(C)C, which MIC [5] is on record?
Answer: 8 µg/mL (≈ 22.6 µM)

Question: And the MIC [6]?
Answer: 8 µg/mL (≈ 22.6 µM)

Question: And the MIC [7]?
Answer: 16 µg/mL (≈ 45.3 µM)

Question: What about the MIC [8] of the same compound?
Answer: 8 µg/mL (≈ 22.6 µM)

Question: Which MIC [2] does the source give for O=C(COc1ccccc1)NNC(=O)c1ccncc1 here?
Answer: 25 µg/mL (≈ 92.2 µM)

Question: With COc1ccc(NC(=O)c2c(Nc3ccc(OC)cc3)nn3c(O)cc(C)nc23)cc1 as the compound, how does the MIC [1] read?
Answer: 12.5 µg/mL (≈ 29.8 µM)

Question: Which results are given for O=C(CCC(F)(F)F)N1CC(c2cc(F)c(F)c(F)c2)C1?
Answer: IC50 [3]: 10 nM; EC50 [4]: < 10 nM

Question: For COc1ccc(NC(=O)c2c(Nc3cccc(Cl)c3)nn3c(O)cc(C)nc23)cc1, which MIC [1] is on record?
Answer: 12.5 µg/mL (≈ 29.5 µM)

Question: Which MIC [1] does the source give for CCOc1ccc(NC(=O)c2c(Nc3ccc(C)cc3C)nn3c(O)cc(C)nc23)cc1 here?
Answer: 50 µg/mL (≈ 116 µM)

Question: Which IC50 [3] does the source give for O=C(CCC(F)(F)F)N1CCC(c2cncc(Cl)n2)CC1 here?
Answer: 10 nM

Question: What about the EC50 [4] of the same compound?
Answer: < 150 nM

Question: For Cc1cc(O)n2nc(Nc3ccccc3)c(C(=O)Nc3ccccc3)c2n1, which MIC [1] is on record?
Answer: 50 µg/mL (≈ 139 µM)

Question: For Cc1ccc(-c2cc3c(cc2F)c(=O)c(C(=O)O)cn3C(C)(C)C)cc1, which MIC [5] is on record?
Answer: 1 µg/mL (≈ 2.83 µM)

Question: What about the MIC [6] of the same compound?
Answer: 1 µg/mL (≈ 2.83 µM)

Question: What about the MIC [7] of the same compound?
Answer: 1 µg/mL (≈ 2.83 µM)

Question: And the MIC [8]?
Answer: 1 µg/mL (≈ 2.83 µM)

Question: How did the MIC [2] turn out when O=C(Cc1ccccc1Cl)NNC(=O)c1ccncc1 was run?
Answer: 25 µg/mL (≈ 86.3 µM)

Question: Which results are given for CC(C)(C)OC(=O)Nc1ccc(-c2cc3c(cc2F)c(=O)c(C(=O)O)cn3C(C)(C)C)cc1?
Answer: MIC [5]: 4 µg/mL (≈ 8.8 µM); MIC [6]: 4 µg/mL (≈ 8.8 µM); MIC [7]: 4 µg/mL (≈ 8.8 µM); MIC [8]: 4 µg/mL (≈ 8.8 µM)

Question: Which MIC [1] does the source give for Cc1cc(O)n2nc(Nc3ccc(Cl)cc3)c(C(N)=O)c2n1 here?
Answer: 50 µg/mL (≈ 157 µM)

Question: For O=C(CCC(F)(F)F)N1CCC(F)(c2ccccn2)CC1, which IC50 [3] is on record?
Answer: 10 nM

Question: What about the EC50 [4] of the same compound?
Answer: < 150 nM

Question: How did the MIC [5] turn out when COc1cccc(-c2cc3c(cc2F)c(=O)c(C(=O)O)cn3C(C)(C)C)c1 was run?
Answer: 1 µg/mL (≈ 2.71 µM)

Question: And the MIC [6]?
Answer: 1 µg/mL (≈ 2.71 µM)

Question: And the MIC [7]?
Answer: 1 µg/mL (≈ 2.71 µM)

Question: What about the MIC [8] of the same compound?
Answer: 1 µg/mL (≈ 2.71 µM)

Question: Which results are given for CC(C)(C)n1cc(C(=O)O)c(=O)c2cc(F)c(Oc3ccccc3)cc21?
Answer: MIC [5]: 16 µg/mL (≈ 45 µM); MIC [6]: 16 µg/mL (≈ 45 µM); MIC [7]: 16 µg/mL (≈ 45 µM); MIC [8]: 8 µg/mL (≈ 22.5 µM)

Question: How did the MIC [5] turn out when CCC(C)(C)n1cc(C(=O)O)c(=O)c2cc(F)c(-c3ccccc3)cc21 was run?
Answer: 16 µg/mL (≈ 45.3 µM)

Question: And the MIC [6]?
Answer: 16 µg/mL (≈ 45.3 µM)

Question: And the MIC [7]?
Answer: 16 µg/mL (≈ 45.3 µM)

Question: And the MIC [8]?
Answer: 8 µg/mL (≈ 22.6 µM)

Question: COc1ccc(-c2cc3c(cc2F)c(=O)c(C(=O)O)cn3C2CC2)cn1 was tested. Which MIC [5] did it give?
Answer: 0.5 µg/mL (≈ 1.41 µM)

Question: What about the MIC [6] of the same compound?
Answer: 0.5 µg/mL (≈ 1.41 µM)

Question: What about the MIC [7] of the same compound?
Answer: 0.5 µg/mL (≈ 1.41 µM)

Question: And the MIC [8]?
Answer: 0.5 µg/mL (≈ 1.41 µM)

Question: What does the source list for O=C(CCC(F)(F)F)N1CCC(c2cncc(Cl)c2)CC1?
Answer: IC50 [3]: 10 nM; EC50 [4]: < 150 nM

Source: ChEMBL document CHEMBL5244273, “Tuberculosis: An Overview of the Immunogenic Response, Disease Progression, and Medicinal Chemistry Efforts in the Last Decade toward the Development of Potential Drugs for Extensively Drug-Resistant Tuberculosis Strains” (J Med Chem, 2021)
